These results are taken from PMC6085350, “Small molecule inhibitors of RAS-effector protein interactions derived using an intracellular antibody fragment” (Nature Communications, 2018).

Assay [1] deals with T1, KRAS^G12D interaction with PI3Kα, PI3Kγ, CRAF RBD and RALGDS RA (Homo sapiens, UniProt P01116, G12D).
T1 construct: Transfection vector encoded full-length RAS was fused to the donor molecule RLuc8; expressed in transfected cells; host or cells: HEK293T
The experiment in a line: BRET2 RAS-effector PPI assay, KRAS G12D. It is filed as cell-based. To be noted: HEK293T, 5, 10 and 20 μM, 20 h. The text has this: (§1) Fig. 4 Abd-7 disrupting RAS-effector interactions. HEK293T cells were transfected with different BRET-based RAS biosensor expression vectors to evaluate the inhibition of RAS PPI in cells by compound Abd-7. Transfection vector encoded full-length RAS was fused to the donor molecule RLuc8 and the effectors fused to the acceptor molecule GFP[2]. a Effect of Abd-2 and Abd-7 on KRAS^G12D interaction with PI3Kα, PI3Kγ, CRAF or RALGDS. The BRET signal is plotted as a % of control cells treated with DMSO only and dose response to 5, 10 and 20 μM of each compound. b Effect of Abd-2 and Abd-7 on the BRET signal from interaction of KRAS^G12 mutants (Rluc8-KRAS^G12) and full-length CRAF (GFP[2]-CRAF FL). c, d Effect of Abd-2 and Abd-7 on the interaction of NRAS^Q61H (c) and HRAS^G12V (d) with various RAS effectors domain and with full-length CRAF. The BRET ratio corresponds to the light emitted by the GFP[2] acceptor constructs (515 nm ± 30) upon addition of Coelenterazine 400a divided by the light emitted by the RLuc8 donor constructs (410 nm ± 80). The normalized BRET ratio is the BRET ratio normalized to the DMSO negative and calculated as follows: (BRETcompound/BRETDMSO) x 100, where BRETcompound corresponds to the BRET ratio for the compound-treated cells, BRETDMSO to the DMSO-treated cells. Each experiment was repeated at least three times. […]
A general note: BRET reads energy transfer from a luciferase to a nearby fluorophore.

Assay [2] addresses T2, NRAS^Q61H interacting with PI3Kα, PI3Kγ, CRAF-RBD or full-length CRAF and RALGDS-RBD (Homo sapiens, UniProt P01111, Q61H).
T2 construct: Transfection vector encoded full-length RAS was fused to the donor molecule RLuc8; expressed in transfected cells; host or cells: HEK293T
The experiment in a line: BRET2 RAS-effector PPI assay, NRAS Q61H. It is filed as cell-based. The conditions noted are these: HEK293T, 5, 10 and 20 μM.
Description: as §1

Assay [3] concerns the target T3, HRAS^G12V interacting with PI3Kα, PI3Kγ, CRAF-RBD or full-length CRAF and RALGDS-RBD (Homo sapiens, UniProt P01112, G12V).
T3 construct: Transfection vector encoded full-length RAS was fused to the donor molecule RLuc8; expressed in transfected cells; host or cells: HEK293T
The experiment in a line: BRET2 RAS-effector PPI assay, HRAS G12V. It is filed as cell-based. The conditions noted are these: HEK293T, 5, 10 and 20 μM.
Description: as §1

The subject of the next assay is RAS-effector PPI. The experiment in a line: RAS biosensor BRET assay (partners not specified). Type of assay: cell-based, human. As for the experimental part:
The BRET assay was carried out as described elsewhere. A total of 650,000 HEK293T were seeded in each well of a six well plate. Approximately, 24 h later, cells were transfected with an appropriated BRET-based RAS biosensor (i.e. RAS-effector) using Lipofectamine 2000 transfection reagent (Thermo-Fisher). Cells were detached 24 h later and washed with PBS and seeded in a white 96 well plate (clear bottom, PerkinElmer, cat#6005181) in OptiMEM no phenol red medium (Life Technologies) complemented with 4% FBS. Cells were left for 4 h at 37 °C before adding compounds. […] The final concentrations in the cells were 0, 5, 10 and 20 μM (therefore the intermediate 10X concentrations were 0, 50, 100 and 200 μM. Furthermore, 10 μl of 10X compounds were added in each well of the 96 well plate to 0, 5, 10 and 20 μM final concentrations (with final 0.2% DMSO each). Quadruplicates were performed for each point. Cells were left for an additional 20 h at 37 °C before the BRET2 signal reading directly after addition of Coelenterazine 400a substrate (10 μM final) to cells (Cayman Chemicals, cat#16157). BRET2 reading was carried out on an Envision instrument (2103 Multilabel Reader, PerkinElmer) with the BRET2 Dual Emission optical module (515 nm ± 30 and 410 nm ± 80; PerkinElmer).

As to `O=C(NCC1COc2ccccc2O1)c1ccco1` (stereo not shown) [Abd-2], the “effect on BRET signal, KRAS^G12D with PI3Kα, PI3Kγ, CRAF RBD, RALGDS RA” value in assay [1] is “no effect”. In addition, the “effect on BRET signal, NRAS^Q61H with effectors” value in assay [2] is “does not”. The “effect on BRET signal, HRAS^G12V with effectors” value in assay [3] was “does not”. The “activity in the RAS biosensor BRET assay” value in the assay with RAS-effector PPI was “do not show activity”.

For `COc1nc(-c2cccc3c2OCCO3)ccc1Nc1ccc(CN(C)C)cc1` [Abd-7], in assay [1], the “effect on BRET signal, KRAS^G12D with PI3Kα, PI3Kγ, CRAF RBD, RALGDS RA” value was “reduces the BRET signal”. In addition, the “effect on BRET signal, NRAS^Q61H with effectors” value in assay [2] was “interferes”. Besides, in assay [3], the “effect on BRET signal, HRAS^G12V with effectors” value is given as “interferes”.
